Measured values: patent US12319672B2, “Alpha-D-galactopyranoside derivatives” (Idorsia Pharmaceuticals Ltd, priority 2019, dated 2025)

Assays:
human Gal-3 (hGal-3) = human Gal-3 (hGal-3) (Homo sapiens (Human), UniProt P17931); test: Competitive binding assay: binding of biotinylated hGal-3 to microplate-adsorbed asialofetuin (ASF); settings: Activity on hGal-3; mean values of several measurements
How it was run: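 Compounds in DMSO dilution series competed with 300-1000 ng/mL biotinylated hGal-3 for asialofetuin adsorbed on the plate (3 h, 4° C). Streptavidin-peroxidase at 80 ng/mL (1 h, 4° C) with ABTS gave a spectrophotometric read-out, and IC50 was reported as the mean of repeat runs.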

human Gal-1 (hGal-1) = test: Competitive binding assay: binding of biotinylated hGal-1 to microplate-adsorbed asialofetuin (ASF); settings: Activities on hGal-1; mean values of several measurements
How it was run: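 Spectrophotometric readout (streptavidin-peroxidase, ABTS) of biotinylated galectin retained on ASF-coated wells. Biotinylated hGal-1 or hGal-3, 300-1000 ng/mL, co-incubated with test compound 3 h at 4° C, then washed. Mean IC50 from repeat runs.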

Chain of human Gal-1 (hGal-1) (P09382 2-135 limits assumed): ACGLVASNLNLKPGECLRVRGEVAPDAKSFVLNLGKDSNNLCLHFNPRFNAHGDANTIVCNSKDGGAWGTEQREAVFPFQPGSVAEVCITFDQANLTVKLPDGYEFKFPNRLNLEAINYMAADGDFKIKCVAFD
Chain of human Gal-3 (hGal-3) (P17931 whole entry): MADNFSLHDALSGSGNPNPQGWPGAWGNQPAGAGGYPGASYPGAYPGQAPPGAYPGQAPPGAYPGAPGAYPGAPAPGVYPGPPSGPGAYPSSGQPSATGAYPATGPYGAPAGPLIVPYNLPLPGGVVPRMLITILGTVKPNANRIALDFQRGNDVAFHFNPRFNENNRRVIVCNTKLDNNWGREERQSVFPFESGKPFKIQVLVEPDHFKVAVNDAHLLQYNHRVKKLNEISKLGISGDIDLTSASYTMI

SMILES | IC50 (human Gal-3 (hGal-3)) [µM] | IC50 (human Gal-1 (hGal-1)) [µM]
CC(C)(C)OC(=O)N1CCC(C2=NOC(C[C@H]3O[C@H](CO)[C@H](O)[C@H](n4cc(-c5ccc(C(F)(F)F)c(F)c5)nn4)[C@H]3O)C2)CC1 (stereo partly shown) [Ex 1.103] | 0.45 | 9.82
CO[C@@H]1[C@@H](n2cc(-c3cc(F)c(C)c(F)c3)nn2)[C@@H](O)[C@@H](CO)O[C@@H]1Cc1cc(C2CCCCC2)on1 [Ex 1.170] | 0.4 | > 100
CCc1cc(C[C@H]2O[C@H](CO)[C@H](O)[C@H](n3cc(-c4cc(F)c(F)c(F)c4)nn3)[C@H]2OC)on1 [Ex 1.307] | 0.67 | 7.22
CO[C@@H]1[C@@H](n2cc(-c3cc(F)c(F)c(F)c3)nn2)[C@@H](O)[C@@H](CO)O[C@@H]1Cc1cc(C2(F)CC2)no1 [Ex 1.213] | 0.16 | 1.55
Cc1ccc(-c2cn([C@H]3[C@@H](O)[C@@H](CO)O[C@H](Cc4cc(C(C)(C)CO)no4)[C@@H]3O)nn2)c(F)c1F [Ex 1.334] | 0.024 | 3.31
CO[C@@H]1[C@@H](n2cc(-c3cc(F)c(C)c(F)c3)nn2)[C@@H](O)[C@@H](CO)O[C@@H]1Cc1cc(C2CCN(C(C)=O)CC2)on1 [Ex 1.161] | 0.034 | 1.66
CO[C@@H]1[C@@H](n2cc(-c3cc(F)cc(Cl)c3)nn2)[C@@H](O)[C@@H](CO)O[C@@H]1Cc1cc(C2CCN(C(C)=O)CC2)on1 [Ex 1.169] | 0.154 | 0.47
CO[C@@H]1[C@@H](n2cc(-c3cc(F)c(F)c(F)c3)nn2)[C@@H](O)[C@@H](CO)O[C@@H]1C[C@@H]1CC(C2CCN(C(=O)OC(C)(C)C)CC2)=NO1 [Ex 1.48] | 0.089 | 0.56
CO[C@@H]1[C@@H](n2cc(-c3cc(F)c(F)c(F)c3)nn2)[C@@H](O)[C@@H](CO)O[C@@H]1Cc1cc(C2CCOCC2)on1 [Ex 1.64] | 0.27 | 8.51
OC[C@H]1O[C@H](CC2CC(c3ccc4[nH]cnc4c3)=NO2)[C@H](O)[C@@H](n2cc(-c3cc(F)c(F)c(F)c3)nn2)[C@H]1O (stereo partly shown) [Ex 1.26] | 1.15 | 17.5
CO[C@@H]1[C@@H](n2cc(-c3ccc(Br)c(F)c3)nn2)[C@@H](O)[C@@H](CO)O[C@@H]1Cc1cc(C2CCN(C(=O)OC(C)(C)C)CC2)on1 [Ex 1.249] | 0.15 | 1.78
CO[C@@H]1[C@@H](n2cc(-c3cc(F)c(F)c(F)c3)nn2)[C@@H](O)[C@@H](CO)O[C@@H]1Cc1cc(C2(O)CCOCC2)on1 [Ex 1.75] | 0.4 | 3.55
OC[C@H]1O[C@H](CC2CC(c3cc(Cl)ccc3Cl)=NO2)[C@H](O)[C@@H](n2cc(-c3cc(F)c(F)c(F)c3)nn2)[C@H]1O (stereo partly shown) [Ex 1.295] | 1.8 | 17.1
OC[C@H]1O[C@H](Cc2cc(C3CC3)on2)[C@H](O)[C@@H](n2cc(-c3cc(F)c(F)c(F)c3)nn2)[C@H]1O [Ex 1.52] | 0.5 | 7.98
CO[C@@H]1[C@@H](n2cc(-c3ccc(Br)c(F)c3F)nn2)[C@@H](O)[C@@H](CO)O[C@@H]1Cc1cc(C2CCOCC2)on1 [Ex 1.182] | 0.082 | 4.73
CO[C@@H]1[C@@H](n2cc(-c3ccc(C)c(F)c3F)nn2)[C@@H](O)[C@@H](CO)O[C@@H]1Cc1cc(C(C)(C)CNC(=O)OC(C)(C)C)no1 [Ex 1.331] | 0.058 | 1.99
CCOC(=O)N1CCC(c2cc(C[C@H]3O[C@H](CO)[C@H](O)[C@H](n4cc(-c5cc(F)c(F)c(Cl)c5)nn4)[C@H]3OC)no2)CC1 [Ex 1.220] | 0.035 | 0.57
CO[C@@H]1[C@@H](n2cc(-c3ccc(C)c(F)c3F)nn2)[C@@H](O)[C@@H](CO)O[C@@H]1Cc1cc(C2CCC(=O)N(C)CC2)no1 (stereo partly shown) [Ex 1.345] | 0.044 | 0.72

The next lines start with the values.

IC50 (human Gal-3 (hGal-3)) [µM] | IC50 (human Gal-1 (hGal-1)) [µM] | SMILES
0.01 | 0.067 | CO[C@@H]1[C@@H](n2cc(-c3cc(F)c(F)c(F)c3)nn2)[C@@H](O)[C@@H](CO)O[C@@H]1Cc1cn(C2CCN(C(=O)NC(C)(C)C)CC2)nn1 [Example 4.08, N-(tert-butyl)-4-(4-(((2R,3R,4S,5R,6R)-5-hydroxy-6-(hydroxymethyl)-3-methoxy-4-(4-(3,4,5-trifluorophenyl)-1H-1,2,3-triazol-1-yl)tetrahydro-2H-pyran-2-yl)methyl)-1H-1,2,3-triazol-1-yl)piperidine-1-carboxamide]
0.038 | 1.23 | CS(=O)(=O)N1CCC(c2cc(C[C@H]3O[C@H](CO)[C@H](O)[C@H](n4cc(-c5cc(F)c(F)c(F)c5)nn4)[C@H]3O)no2)CC1 [Example 3.28, (2R,3R,4R,5R,6R)-2-(hydroxymethyl)-6-((5-(1-(methylsulfonyl)piperidin-4-yl)isoxazol-3-yl)methyl)-4-(4-(3,4,5-trifluorophenyl)-1H-1,2,3-triazol-1-yl)tetrahydro-2H-pyran-3,5-diol]
0.048 | 0.93 | CCCC(=O)N1CCC(c2cc(C[C@H]3O[C@H](CO)[C@H](O)[C@H](n4cc(-c5cc(F)c(F)c(F)c5)nn4)[C@H]3OC)no2)CC1 [Example 3.35, 1-(4-(3-(((2R,3R,4S,5R,6R)-5-hydroxy-6-(hydroxymethyl)-3-methoxy-4-(4-(3,4,5-trifluorophenyl)-1H-1,2,3-triazol-1-yl)tetrahydro-2H-pyran-2-yl)methyl)isoxazol-5-yl)piperidin-1-yl)butan-1-one]
1.24 | 11.8 | COC1CCC(N2C[C@H](C[C@H]3O[C@H](CO)[C@H](O)[C@H](n4cc(-c5cc(F)c(F)c(F)c5)nn4)[C@H]3OC)OC2=O)CC1 (mixture of isomers) [Example 5.26, (RS)-5-(((2R,3R,4S,5R,6R)-5-hydroxy-6-(hydroxymethyl)-3-methoxy-4-(4-(3,4,5-trifluorophenyl)-1H-1,2,3-triazol-1-yl)tetrahydro-2H-pyran-2-yl)methyl)-3-((1s,4S)-4-methoxycyclohexyl)oxazolidin-2-one]
0.16 | 3.92 | CO[C@@H]1[C@@H](n2cc(-c3cc(F)c(F)c(F)c3)nn2)[C@@H](O)[C@@H](CO)O[C@@H]1Cn1cc(C2CCOCC2)nn1 [Example 4.40, (2R,3R,4S,5R,6R)-2-(hydroxymethyl)-5-methoxy-6-((4-(tetrahydro-2H-pyran-4-yl)-1H-1,2,3-triazol-1-yl)methyl)-4-(4-(3,4,5-trifluorophenyl)-1H-1,2,3-triazol-1-yl)tetrahydro-2H-pyran-3-ol]
0.19 | 2.51 | CCC(C)C(=O)N1CCC(c2cc(C[C@H]3O[C@H](CO)[C@H](O)[C@H](n4cc(-c5cc(F)c(F)c(F)c5)nn4)[C@H]3OC)no2)CC1 (mixture of isomers) [Example 3.53, (RS)-1-(4-(3-(((2R,3R,4S,5R,6R)-5-hydroxy-6-(hydroxymethyl)-3-methoxy-4-(4-(3,4,5-trifluorophenyl)-1H-1,2,3-triazol-1-yl)tetrahydro-2H-pyran-2-yl)methyl)isoxazol-5-yl)piperidin-1-yl)-2-methylbutan-1-one]
0.022 | 0.073 | CO[C@@H]1[C@@H](n2cc(-c3cc(F)c(F)c(F)c3)nn2)[C@@H](O)[C@@H](CO)O[C@@H]1CN1CC(=O)N(C2CCN(C(C)=O)CC2)C1 [Example 6.08, 3-(1-acetylpiperidin-4-yl)-1-(((2R,3R,4S,5R,6R)-5-hydroxy-6-(hydroxymethyl)-3-methoxy-4-(4-(3,4,5-trifluorophenyl)-1H-1,2,3-triazol-1-yl)tetrahydro-2H-pyran-2-yl)methyl)imidazolidin-4-one]
0.55 | 5.65 | CO[C@@H]1[C@@H](n2cc(-c3cc(F)c(F)c(F)c3)nn2)[C@@H](O)[C@@H](CO)O[C@@H]1CC1CC(C2CCNCC2)=NO1 (mixture of isomers) [Example 3.04, (2R,3R,4S,5R,6R)-2-(hydroxymethyl)-5-methoxy-6-(((RS)-3-(piperidin-4-yl)-4,5-dihydroisoxazol-5-yl)methyl)-4-(4-(3,4,5-trifluorophenyl)-1H-1,2,3-triazol-1-yl)tetrahydro-2H-pyran-3-ol]
0.045 | 0.31 | CO[C@@H]1[C@@H](n2cc(-c3ccc(F)c(F)c3F)nn2)[C@@H](O)[C@@H](CO)O[C@@H]1Cc1cn(C(C)(C)C)nn1 [Example 4.46, (2R,3R,4S,5R,6R)-6-((1-(tert-butyl)-1H-1,2,3-triazol-4-yl)methyl)-2-(hydroxymethyl)-5-methoxy-4-(4-(2,3,4-trifluorophenyl)-1H-1,2,3-triazol-1-yl)tetrahydro-2H-pyran-3-ol]
0.047 | 0.55 | CC(C)(C)c1cc(C[C@H]2O[C@H](CO)[C@H](O)[C@H](n3cc(-c4ccc(F)c(F)c4F)nn3)[C@H]2OCC(=O)O)on1 [Example 2.43, 2-(((2R,3R,4S,5R,6R)-2-((3-(tert-butyl)isoxazol-5-yl)methyl)-5-hydroxy-6-(hydroxymethyl)-4-(4-(2,3,4-trifluorophenyl)-1H-1,2,3-triazol-1-yl)tetrahydro-2H-pyran-3-yl)oxy)acetic acid]
0.045 | 0.59 | CO[C@@H]1[C@@H](n2cc(-c3cc(F)c(F)c(F)c3)nn2)[C@@H](O)[C@@H](CO)O[C@@H]1Cc1cc(C2CCN(C(=O)C3CCC3)CC2)on1 [Example 3.50, cyclobutyl(4-(3-(((2R,3R,4S,5R,6R)-5-hydroxy-6-(hydroxymethyl)-3-methoxy-4-(4-(3,4,5-trifluorophenyl)-1H-1,2,3-triazol-1-yl)tetrahydro-2H-pyran-2-yl)methyl)isoxazol-5-yl)piperidin-1-yl)methanone]
